This is an account of results in publication PMC11897524 (Frontiers in Pharmacology, 2025).

One assay has as its target CSF1R (Homo sapiens, UniProt P07333). As to the kind of experiment: SelectScreen Z′-LYTE kinase assay. The format is biochemical. The protocol:
(§1) The kinase selectivity profile of BST-4 was performed by the SelectScreen kinase profiling service (Thermo Fisher Scientific). Kinase selectivity assay was performed using Z′-LYTE ™ screening protocol kit. Briefly, the test compounds were screened in 1% DMSO (final). For 10-point titrations, perform a 3-fold dilution starting at a starting concentration of 50 µM. Then 2.5 µL 4× test compound, 2.4 µL kinase buffer, 5 µL 2× kinase mixture and 2.5 µL 4× ATP solution was added in black 384-well plate. After shaking for 30 s, the plates were incubated for 60 min at room temperature. Add developing reagent solution and shake the plate for 30 s, then incubate for 1 h at room temperature. The Fluorescence intensity per well was read using a fluorescence plate reader. SelectScreen® Kinase Profiling Service used XLfit from IDBS. The dose response curve was curve fit to model number 205 (sigmoidal dose-response model) and inhibition rates were calculated. 50% inhibition was used as a activity threshold. IC50 values were calculated based on curve fitting.

The target in the next assay is DDR1 (Homo sapiens, UniProt Q08345). In words: SelectScreen Z′-LYTE kinase assay. It is filed as biochemical. On the procedure: as §1
For another assay, the target named is EPHB1 (Homo sapiens, UniProt P54762). In words: SelectScreen Z′-LYTE kinase assay. The format is biochemical. On the procedure:
as §1

Another assay addresses FYN (Homo sapiens, UniProt P06241). In words: SelectScreen Z′-LYTE kinase assay. The format is biochemical. On the procedure:
as §1

A further assay has as its target HCK (Homo sapiens, UniProt P08631). In words: SelectScreen Z′-LYTE kinase assay. The format is biochemical. The protocol: as §1
The next assay deals with INSRR (Homo sapiens, UniProt P14616). In words: SelectScreen Z′-LYTE kinase assay. The format is biochemical. The protocol: as §1
The next assay concerns the target JAK2 (Homo sapiens, UniProt O60674). As to the kind of experiment: SelectScreen Z′-LYTE kinase assay. The format is biochemical. The protocol:
as §1

The target in a further assay is KIT (Homo sapiens, UniProt P10721). In words: SelectScreen Z′-LYTE kinase assay. It is filed as biochemical. On the procedure: as §1
A further assay concerns the target TEK (Homo sapiens, UniProt Q02763). As to the kind of experiment: SelectScreen Z′-LYTE kinase assay. The format is biochemical. The protocol: as §1
Another assay concerns shBRD4-CAKI-2 cells. In words: MTT assay on shRNA-transfected CAKI-2 cells. The format is cell-based. To be noted: Homo sapiens, CAKI-2 stably expressing BRD4 shRNA, 48 h, read-out: IC50 (μM) ± SD shBRD4-CAKI-2. The protocol: (§2) The effect of hit compounds on cytotoxicity was determined as previously reported ([Ding et al., 2020]). In brief, cells treated with the tested compounds were added with MTT reagent to form formazan crystals, and then the optical density (OD) values at 570 nm were determined after the crystals were dissolved in DMSO. […] Next, the values of IC50 of the selected compounds against more RCC cell lines were determined. The 5 × 10^3 cells in 100 μL culture medium were injected into each well of a 96-well plate and cultured overnight. Add different concentrations of compounds and incubate for 48 h. Then 100 μL of MTT (0.5 mg/mL) solution was added to the 96-well plate and maintained at 37°C for 4 h. Finally, 200 μL of DMSO was added and shaken for 10 min. The OD values at 570 nm were determined by a Synergy 4 microplate reader.
(§3) ^aIC50 (μM) is the concentration of compound needed to reduce cell growth by 50% following 48 h cell treatment with BST-4. shControl-CAKI-2: CAKI-2 cells stably expressing Control shRNA; shBRD4-CAKI-2 cells: CAKI-2 cells stably expressing BRD4 shRNA; shSTAT3-CAKI-2 cells: CAKI-2 cells stably expressing STAT3 shRNA; shBRD4/STAT3-CAKI-2 cells: CAKI-2 cells stably expressing BRD4/STAT3 shRNA. Each experiment was performed at least three times. Data are presented as the mean ± SD.

The subject of assay [1] is shBRD4/STAT3-CAKI-2 cells. As to the kind of experiment: MTT assay on shRNA-transfected CAKI-2 cells. The format is cell-based. Particulars: Homo sapiens, CAKI-2 stably expressing BRD4/STAT3 shRNA, 48 h, read-out: IC50 (μM) ± SD shBRD4/STAT3-CAKI-2. The protocol: as §2, §3
(Tetrazolium dyes change colour on reduction, which living cells bring about.)

In another assay the test system is shControl-CAKI-2 cells. As to the kind of experiment: MTT assay on shRNA-transfected CAKI-2 cells. The format is cell-based. To be noted: Homo sapiens, CAKI-2 stably expressing Control shRNA, 48 h, read-out: IC50 (μM) ± SD shControl-CAKI-2. The protocol: as §2, §3
The test system of a further assay is shSTAT3-CAKI-2 cells. As to the kind of experiment: MTT assay on shRNA-transfected CAKI-2 cells. The format is cell-based. Particulars: Homo sapiens, CAKI-2 stably expressing STAT3 shRNA, 48 h, read-out: IC50 (μM) ± SD shSTAT3-CAKI-2. The protocol: as §2, §3
Another assay concerns the target BRD4 (Homo sapiens, UniProt O60885). In words: NanoBRET assay in HEK293T cells. The format is cell-based. Also on record: NanoLuc BRD4/STAT3 FL Fusion Vector DNA; expressed in transfected cells; host or cells: HEK293T. On the procedure: (§4) The method was performed as previously reported ([Horai et al., 2024]). Briefly, HEK293T cells were seeded in dishes and allow the cells to attach and recover for overnight. The mixture of Histone H4 HaloTag Fusion vector DNA, NanoLuc BRD4/STAT3 FL Fusion Vector DNA, opti-MEM, and FuGENE HD was added dropwise to the HEK293T cells followed by incubation for 20–24 h at 37°C and 5% CO2 and allow the proteins to express. The cells were collected and re-seeded in 384 well plates. HaloTag NanoBRET 618 Ligand was added to plate and allow the cells to attach and recover for 4 h. Serially diluted compounds were transferred to the plate and incubated the plate overnight. Then NanoBRET Nano-Glo Substrate in Opti-MEM was added, and shake plate to mix. The donor emission (450 nm) and acceptor emission (610 nm), BRET signal, were measured within 10 min of substrate addition using microplate reader (Envision, PerkinElmer). Data analysis was done by measuring the ratio of acceptor emission to donor emission (BRET ratio). IC50 values and curve fits were obtained using GraphPad Prism 7.0 software.

Another assay has as its target STAT3 (Homo sapiens, UniProt P40763). In words: NanoBRET assay in HEK293T cells. More on the design: NanoLuc BRD4/STAT3 FL Fusion Vector DNA; expressed in transfected cells; host or cells: HEK293T. The format is cell-based. The protocol:
as §4

Chain of INSRR (P14616 27-1297): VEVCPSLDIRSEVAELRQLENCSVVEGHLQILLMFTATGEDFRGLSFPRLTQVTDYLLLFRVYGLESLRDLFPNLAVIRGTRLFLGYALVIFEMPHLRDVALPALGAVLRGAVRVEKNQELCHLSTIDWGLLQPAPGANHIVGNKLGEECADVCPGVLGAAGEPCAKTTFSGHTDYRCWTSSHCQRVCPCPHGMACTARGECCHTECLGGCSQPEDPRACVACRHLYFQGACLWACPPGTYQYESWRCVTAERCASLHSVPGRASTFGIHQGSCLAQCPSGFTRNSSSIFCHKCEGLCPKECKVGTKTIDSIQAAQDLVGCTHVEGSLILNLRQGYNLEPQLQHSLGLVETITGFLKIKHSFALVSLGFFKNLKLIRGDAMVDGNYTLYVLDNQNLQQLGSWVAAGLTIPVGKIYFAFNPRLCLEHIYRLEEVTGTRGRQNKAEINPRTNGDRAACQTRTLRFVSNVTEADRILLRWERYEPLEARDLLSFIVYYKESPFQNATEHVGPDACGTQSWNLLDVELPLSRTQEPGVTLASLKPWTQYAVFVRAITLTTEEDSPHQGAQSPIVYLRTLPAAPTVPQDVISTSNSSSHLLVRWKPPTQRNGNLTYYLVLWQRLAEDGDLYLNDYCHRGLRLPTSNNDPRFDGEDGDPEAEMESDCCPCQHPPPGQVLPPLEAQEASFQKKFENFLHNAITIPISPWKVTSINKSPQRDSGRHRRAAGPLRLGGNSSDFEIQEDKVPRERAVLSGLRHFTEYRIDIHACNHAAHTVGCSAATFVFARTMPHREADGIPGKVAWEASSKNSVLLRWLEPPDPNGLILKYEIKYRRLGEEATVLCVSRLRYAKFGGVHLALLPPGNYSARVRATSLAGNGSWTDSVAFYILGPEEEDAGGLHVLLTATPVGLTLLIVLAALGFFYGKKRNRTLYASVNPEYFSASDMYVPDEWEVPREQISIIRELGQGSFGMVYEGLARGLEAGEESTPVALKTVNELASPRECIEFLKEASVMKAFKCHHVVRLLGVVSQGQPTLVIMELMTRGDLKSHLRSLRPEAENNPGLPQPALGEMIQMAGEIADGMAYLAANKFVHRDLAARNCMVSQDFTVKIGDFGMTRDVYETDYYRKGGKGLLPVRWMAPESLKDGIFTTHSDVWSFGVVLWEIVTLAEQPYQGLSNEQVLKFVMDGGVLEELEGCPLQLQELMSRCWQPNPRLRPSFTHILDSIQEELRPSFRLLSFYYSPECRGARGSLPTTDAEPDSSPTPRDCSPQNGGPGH
Chain of FYN (P06241 whole entry): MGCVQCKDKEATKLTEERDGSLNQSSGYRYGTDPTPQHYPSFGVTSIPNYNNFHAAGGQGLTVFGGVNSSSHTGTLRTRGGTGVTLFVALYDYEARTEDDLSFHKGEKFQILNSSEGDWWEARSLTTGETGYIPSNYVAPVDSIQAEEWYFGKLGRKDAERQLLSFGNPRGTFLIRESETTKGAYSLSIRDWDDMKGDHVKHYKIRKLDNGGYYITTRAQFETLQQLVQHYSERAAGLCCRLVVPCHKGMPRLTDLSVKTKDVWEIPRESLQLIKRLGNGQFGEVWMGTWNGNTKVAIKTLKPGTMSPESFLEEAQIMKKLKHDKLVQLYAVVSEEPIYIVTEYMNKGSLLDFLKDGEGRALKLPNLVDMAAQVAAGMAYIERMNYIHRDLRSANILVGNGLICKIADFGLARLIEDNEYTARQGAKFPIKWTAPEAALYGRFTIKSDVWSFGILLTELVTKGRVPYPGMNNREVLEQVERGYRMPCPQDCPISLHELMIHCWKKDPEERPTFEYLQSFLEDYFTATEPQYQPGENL
Chain of DDR1 (Q08345 19-913): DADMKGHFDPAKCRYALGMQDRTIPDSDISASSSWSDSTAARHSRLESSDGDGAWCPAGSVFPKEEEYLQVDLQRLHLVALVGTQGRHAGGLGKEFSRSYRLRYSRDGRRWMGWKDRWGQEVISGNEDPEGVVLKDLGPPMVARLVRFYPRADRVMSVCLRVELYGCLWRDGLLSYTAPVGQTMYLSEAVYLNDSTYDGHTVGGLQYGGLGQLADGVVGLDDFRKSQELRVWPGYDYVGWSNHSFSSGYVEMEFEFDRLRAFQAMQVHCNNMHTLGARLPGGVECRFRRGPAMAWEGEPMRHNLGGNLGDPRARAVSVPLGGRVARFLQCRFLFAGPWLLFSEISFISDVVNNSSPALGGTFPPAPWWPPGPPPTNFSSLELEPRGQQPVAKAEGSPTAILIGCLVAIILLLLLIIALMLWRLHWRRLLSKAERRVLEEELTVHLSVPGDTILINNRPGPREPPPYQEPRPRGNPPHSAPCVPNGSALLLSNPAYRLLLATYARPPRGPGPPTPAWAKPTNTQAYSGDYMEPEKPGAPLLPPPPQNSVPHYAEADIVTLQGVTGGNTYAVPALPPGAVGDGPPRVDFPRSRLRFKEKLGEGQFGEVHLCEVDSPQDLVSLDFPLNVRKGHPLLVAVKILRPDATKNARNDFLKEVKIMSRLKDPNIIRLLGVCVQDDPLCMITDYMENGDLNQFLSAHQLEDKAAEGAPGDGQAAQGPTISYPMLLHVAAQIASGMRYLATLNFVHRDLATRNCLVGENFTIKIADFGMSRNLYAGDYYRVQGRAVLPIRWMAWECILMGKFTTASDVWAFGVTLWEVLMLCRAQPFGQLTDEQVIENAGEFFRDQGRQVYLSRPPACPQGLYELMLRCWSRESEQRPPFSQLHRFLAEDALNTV
Chain of KIT (P10721 26-976): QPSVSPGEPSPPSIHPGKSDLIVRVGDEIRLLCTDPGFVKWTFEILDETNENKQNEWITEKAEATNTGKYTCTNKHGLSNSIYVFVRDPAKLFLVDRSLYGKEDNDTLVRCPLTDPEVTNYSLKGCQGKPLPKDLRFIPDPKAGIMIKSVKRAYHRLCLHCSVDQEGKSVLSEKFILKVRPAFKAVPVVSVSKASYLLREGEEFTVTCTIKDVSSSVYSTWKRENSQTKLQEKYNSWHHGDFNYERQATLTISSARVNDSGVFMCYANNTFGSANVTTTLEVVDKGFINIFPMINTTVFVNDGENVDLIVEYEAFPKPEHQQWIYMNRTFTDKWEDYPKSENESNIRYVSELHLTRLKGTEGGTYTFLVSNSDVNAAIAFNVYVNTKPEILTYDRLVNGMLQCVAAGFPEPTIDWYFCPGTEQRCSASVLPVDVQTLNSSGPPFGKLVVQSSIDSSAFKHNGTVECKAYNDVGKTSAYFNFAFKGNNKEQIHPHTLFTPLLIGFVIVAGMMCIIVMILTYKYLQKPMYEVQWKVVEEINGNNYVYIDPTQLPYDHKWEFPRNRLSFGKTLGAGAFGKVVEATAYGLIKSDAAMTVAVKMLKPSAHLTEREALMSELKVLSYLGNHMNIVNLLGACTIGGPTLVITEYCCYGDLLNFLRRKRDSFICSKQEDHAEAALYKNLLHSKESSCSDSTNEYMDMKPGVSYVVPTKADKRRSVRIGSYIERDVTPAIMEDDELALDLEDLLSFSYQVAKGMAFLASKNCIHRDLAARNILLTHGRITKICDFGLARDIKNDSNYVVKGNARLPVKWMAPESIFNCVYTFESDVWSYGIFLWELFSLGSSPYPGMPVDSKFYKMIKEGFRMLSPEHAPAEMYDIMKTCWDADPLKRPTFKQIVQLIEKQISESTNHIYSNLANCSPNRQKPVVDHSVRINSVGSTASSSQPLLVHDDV
Chain of CSF1R (P07333 20-972): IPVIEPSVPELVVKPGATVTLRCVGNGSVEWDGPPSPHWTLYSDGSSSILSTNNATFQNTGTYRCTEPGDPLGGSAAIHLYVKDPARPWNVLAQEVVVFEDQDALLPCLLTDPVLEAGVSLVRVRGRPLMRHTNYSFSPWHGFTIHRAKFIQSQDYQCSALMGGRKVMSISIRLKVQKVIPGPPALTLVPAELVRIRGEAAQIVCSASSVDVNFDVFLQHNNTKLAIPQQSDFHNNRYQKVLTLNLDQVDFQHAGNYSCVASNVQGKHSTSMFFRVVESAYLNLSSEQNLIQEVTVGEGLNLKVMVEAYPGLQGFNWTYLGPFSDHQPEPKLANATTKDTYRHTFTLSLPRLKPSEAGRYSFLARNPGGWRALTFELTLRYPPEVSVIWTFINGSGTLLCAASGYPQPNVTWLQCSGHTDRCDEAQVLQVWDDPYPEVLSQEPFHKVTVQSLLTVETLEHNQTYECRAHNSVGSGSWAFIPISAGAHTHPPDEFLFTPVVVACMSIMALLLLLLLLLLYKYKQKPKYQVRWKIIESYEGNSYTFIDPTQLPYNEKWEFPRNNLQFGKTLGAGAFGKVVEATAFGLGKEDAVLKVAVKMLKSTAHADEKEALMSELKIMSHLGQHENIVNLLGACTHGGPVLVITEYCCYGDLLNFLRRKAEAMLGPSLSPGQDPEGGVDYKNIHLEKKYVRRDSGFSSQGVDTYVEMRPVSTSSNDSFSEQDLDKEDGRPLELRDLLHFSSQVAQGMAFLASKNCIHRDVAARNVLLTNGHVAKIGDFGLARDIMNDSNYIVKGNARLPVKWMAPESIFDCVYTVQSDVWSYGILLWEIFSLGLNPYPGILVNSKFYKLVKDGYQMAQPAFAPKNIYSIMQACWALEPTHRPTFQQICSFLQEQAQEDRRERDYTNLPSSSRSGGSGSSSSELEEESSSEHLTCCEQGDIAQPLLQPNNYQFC

Regarding `CCS(=O)(=O)Cc1cnc(Oc2c(F)cc(F)cc2OCCCCOc2ccc(/C=C/c3cc(OC)cc(OC)c3)cc2)c(-c2cc(C)c3c(=O)[nH]ccn23)c1` [BST-4], the IC50 on CSF1R, against DDR1, on EPHB1, at FYN, on HCK and against INSRR was greater than 10 µM in each case. Also, the IC50 on JAK2 was greater than 10 µM; against KIT it was greater than 10 µM; on TEK, greater than 10 µM; with shBRD4-CAKI-2 cells, 5.09 ± 0.27 µM; in [1], greater than 10 µM; in the assay on shControl-CAKI-2 cells it was 0.76 ± 0.05 µM. Further, the IC50 turned out to be 3.48 ± 0.21 µM with shSTAT3-CAKI-2 cells, 0.00258 ± 7e-05 µM at BRD4 and 0.00517 ± 9e-05 µM on STAT3. The inhibition at 1 µM on CSF1R is 2.02%; at DDR1, 3.63%; against EPHB1, 3.35%; against FYN, 2.03%; at HCK it was 0.86%; against INSRR, 0.62%. The inhibition at 1 µM on JAK2 stood at 0.18%; against KIT it was 0.25%; at TEK, 4.16%.

In general, inhibition refers to the relative decrease from the control value, in per cent.
